From patent US9981960B2, “Pyrrolidine compound and application as melanocortin receptor agonist” (MITSUBISHI TANABE PHARMA CORPORATION, priority 2014, dated 2018) come the findings set out here.

Molecules are shown by their SMILES.

What is called EC50 is the concentration at which the effect is half-maximal. High values mean a need for much substance, low ones an effect from little substance.

One test concerns the target human MC4R (Homo sapiens, UniProt P32245). Nature of the test: human MC4R agonist activity. Type of test: cell-based.
For another test, the target named is T1, Human MC1R (Homo sapiens, UniProt Q01726).
T1 construct: endogenous in cells; host or cells: human melanoma cell line HBL
T1 sequence (Q01726 whole entry): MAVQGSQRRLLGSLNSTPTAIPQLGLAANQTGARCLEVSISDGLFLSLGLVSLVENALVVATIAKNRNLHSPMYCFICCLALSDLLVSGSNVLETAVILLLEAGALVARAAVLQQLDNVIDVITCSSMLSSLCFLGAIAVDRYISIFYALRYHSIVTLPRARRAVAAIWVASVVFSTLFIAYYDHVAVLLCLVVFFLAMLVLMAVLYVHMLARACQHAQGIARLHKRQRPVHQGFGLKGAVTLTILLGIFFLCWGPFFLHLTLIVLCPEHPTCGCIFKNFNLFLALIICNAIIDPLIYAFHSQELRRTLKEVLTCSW
Nature of the test: MCR agonist measurement (cAMP measurement), human MC1R agonist activity in human melanoma cell line HBL. It is filed as cell-based. The following applies: HBL cells; for EC50: 37° C. for 30 minutes, intracellular cAMP by fluorescence method; for Human MC1R IA %: Intrinsic Activity, vehicle cAMP = 0%, αMSH at 10^-6 M = 100%.

Chain of human MC4R (P32245 whole entry): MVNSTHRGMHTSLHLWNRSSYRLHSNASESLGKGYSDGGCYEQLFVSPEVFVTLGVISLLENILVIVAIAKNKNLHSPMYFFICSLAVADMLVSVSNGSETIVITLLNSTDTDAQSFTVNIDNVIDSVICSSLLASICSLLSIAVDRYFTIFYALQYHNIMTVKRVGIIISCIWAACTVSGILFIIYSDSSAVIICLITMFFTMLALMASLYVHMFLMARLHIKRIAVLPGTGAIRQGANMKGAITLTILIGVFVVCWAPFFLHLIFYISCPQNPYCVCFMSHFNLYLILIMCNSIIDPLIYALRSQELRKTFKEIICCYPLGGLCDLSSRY

In turn, `COC[C@@H]1C[C@@H](c2ccc(F)cc2N2CCC(C(=O)O)CC2)CN1C(=O)[C@]1(F)CN([C@H]2CC[C@H](OC)CC2)C[C@H]1c1ccc(OC)cc1.Cl.Cl` [Example 147, 1-{5-fluoro-2-[(3S,5S)-1-{[(3R,4R)-3-fluoro-1-(trans-4-methoxycyclohexyl)-4-(4-methoxyphenyl)pyrrolidin-3-yl]carbonyl}-5-(methoxymethyl)pyrrolidin-3-yl]phenyl}piperidine-4-carboxylic acid dihydrochloride] yielded an EC50 on human MC4R of 341 nM. In addition, on Human MC1R, the EC50 came to 1.7 nM and the “Human MC1R IA %” value worked out at 102%.

Consider `COc1ccc([C@@H]2CN([C@H]3CC[C@H](OC)CC3)C[C@@]2(F)C(=O)N2C[C@H](c3ccc(C(F)(F)F)cc3N3CCC(C(=O)O)CC3)[C@@H](F)C2)cc1` [Example 148], for which, on Human MC1R, the EC50 came out at 3.6 nM and the “Human MC1R IA %” value is given as 93%.

Take `COC[C@@H]1C[C@@H](c2ccc(C(F)(F)F)cc2N2CCC(C(=O)O)CC2)CN1C(=O)[C@]1(F)CN(C2CCOCC2)C[C@H]1c1ccc(OC)cc1` [Example 137]: on Human MC1R, a half-maximal response (EC50) required 7.3 nM and the “Human MC1R IA %” value amounted to 106%.
